From EP4781984A1 (Beyang Therapeutics Co., Ltd., priority 2023, dated 2025)
pIC50: −log10 of the molar value. In brackets after ≈: the same amount, converted by molar mass.

Legend:
[1] = target: T1, VEGFR3 (Homo sapiens, UniProt P35916); assay: Kinase inhibitory activity, Mobility Shift Assay (VEGFR3); assay type: biochemical
T1 construct: purchased Invitrogen PV4129
Method: (§1) Assay for Inhibitory Activity of Compounds Against VEGFR and EGFR Kinases
(§2) This assay directly monitors the inhibitory activity of compounds on kinase phosphorylation by measuring non-phosphorylated and phosphorylated substrates in the kinase reaction using Mobility Shift Assays/IMAP™ analysis. Table 2. Reagents and Instruments
(§3) Kinase and DTT were added to 1X kinase buffer to form a 2.5X kinase solution; 10 µL of the 2.5X kinase solution was transferred to a 384-well reaction plate, and 1X kinase buffer was added to the negative control wells. The plate was incubated at room temperature for 10 minutes; FAM-labeled peptide, MgCl2, ATP, and other reagents were added to 1X kinase buffer to form a 2.5X substrate solution; 10 µL of the above 2.5X substrate solution was transferred to the 384-well reaction plate; the plate was incubated at 28°C for varying times, and then 25 µL of stop solution was added to the 384-well reaction plate to terminate the reaction. Conversion rate data were read on a CaliperEZ Reader II. […] IC50 values were fitted using XLFit excel add-in version 5.4.0.8. Y = Bottom + (Top−Bottom)/(1 + […]) [formula]
(§4) X is the log value of compound concentration, Y is the inhibition rate (% inhibition).

[2] = tested on: melanin; assay: Compound binding to melanin; assay type: in vitro ADME; details: cuttlefish (Sepia officinalis), melanin suspension (1 mg/mL), percentage of free drug (not bound to melanin), 2 µM compound, melanin 1 mg/mL in PBS pH 7.4, 37°C
Procedure, shortened: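 Compound at 2 µM final incubated with 1 mg/mL Sepia melanin in PBS pH 7.4, 37°C, 2 hours with shaking; blank in PBS with 0.1% BSA. Supernatant concentration by LC-MS/MS. Fb = 100 − (Ctest/Ccontrol) × 100%.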

[3] = target: T2, EGFR (Homo sapiens, UniProt P00533); assay: Kinase inhibitory activity, Mobility Shift Assay (EGFR); assay type: biochemical
T2 construct: purchased Carna 08-115
T2 sequence (P00533 25-1210): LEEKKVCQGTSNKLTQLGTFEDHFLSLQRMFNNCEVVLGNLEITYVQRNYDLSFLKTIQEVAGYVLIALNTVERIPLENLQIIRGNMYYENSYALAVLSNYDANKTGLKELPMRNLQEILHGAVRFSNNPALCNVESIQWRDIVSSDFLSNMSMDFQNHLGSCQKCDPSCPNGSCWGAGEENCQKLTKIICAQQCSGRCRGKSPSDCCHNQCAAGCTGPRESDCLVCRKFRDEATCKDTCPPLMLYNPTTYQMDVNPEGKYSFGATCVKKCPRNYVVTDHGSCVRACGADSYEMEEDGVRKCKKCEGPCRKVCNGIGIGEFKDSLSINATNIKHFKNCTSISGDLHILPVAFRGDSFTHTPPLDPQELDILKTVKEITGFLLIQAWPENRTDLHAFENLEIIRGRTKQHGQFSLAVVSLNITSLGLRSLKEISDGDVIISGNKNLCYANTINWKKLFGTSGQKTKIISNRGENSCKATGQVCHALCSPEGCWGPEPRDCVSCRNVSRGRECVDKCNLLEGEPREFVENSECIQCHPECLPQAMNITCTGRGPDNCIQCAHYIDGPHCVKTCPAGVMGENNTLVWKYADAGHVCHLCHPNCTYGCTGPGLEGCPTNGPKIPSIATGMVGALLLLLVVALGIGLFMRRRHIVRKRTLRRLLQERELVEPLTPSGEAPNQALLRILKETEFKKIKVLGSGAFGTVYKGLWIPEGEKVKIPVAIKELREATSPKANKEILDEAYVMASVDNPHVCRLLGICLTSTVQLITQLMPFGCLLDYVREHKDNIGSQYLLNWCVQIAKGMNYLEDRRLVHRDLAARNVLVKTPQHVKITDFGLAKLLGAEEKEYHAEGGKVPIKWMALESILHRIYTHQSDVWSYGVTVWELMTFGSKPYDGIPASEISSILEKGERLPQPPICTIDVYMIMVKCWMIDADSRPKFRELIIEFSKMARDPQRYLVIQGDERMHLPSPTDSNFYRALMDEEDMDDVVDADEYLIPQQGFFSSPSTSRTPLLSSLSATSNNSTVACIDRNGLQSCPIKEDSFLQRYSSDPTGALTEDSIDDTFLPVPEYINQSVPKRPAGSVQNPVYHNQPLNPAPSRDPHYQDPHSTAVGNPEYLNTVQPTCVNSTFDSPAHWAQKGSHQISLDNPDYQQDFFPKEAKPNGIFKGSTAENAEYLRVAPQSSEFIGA
Procedure, shortened: (§5)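 Each kinase pre-incubated 10 min at room temperature, then FAM-labelled peptide with MgCl2 and ATP added; reaction at 28 °C for kinase-dependent times before stop. Substrate conversion read by mobility shift; IC50 from a four-parameter fit of % inhibition against log concentration.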

[4] = target: T3, VEGFR2 (Homo sapiens, UniProt P35968); assay: Kinase inhibitory activity, Mobility Shift Assay (VEGFR2); assay type: biochemical
T3 construct: purchased Carna 08-191
T3 sequence (P35968 20-1356): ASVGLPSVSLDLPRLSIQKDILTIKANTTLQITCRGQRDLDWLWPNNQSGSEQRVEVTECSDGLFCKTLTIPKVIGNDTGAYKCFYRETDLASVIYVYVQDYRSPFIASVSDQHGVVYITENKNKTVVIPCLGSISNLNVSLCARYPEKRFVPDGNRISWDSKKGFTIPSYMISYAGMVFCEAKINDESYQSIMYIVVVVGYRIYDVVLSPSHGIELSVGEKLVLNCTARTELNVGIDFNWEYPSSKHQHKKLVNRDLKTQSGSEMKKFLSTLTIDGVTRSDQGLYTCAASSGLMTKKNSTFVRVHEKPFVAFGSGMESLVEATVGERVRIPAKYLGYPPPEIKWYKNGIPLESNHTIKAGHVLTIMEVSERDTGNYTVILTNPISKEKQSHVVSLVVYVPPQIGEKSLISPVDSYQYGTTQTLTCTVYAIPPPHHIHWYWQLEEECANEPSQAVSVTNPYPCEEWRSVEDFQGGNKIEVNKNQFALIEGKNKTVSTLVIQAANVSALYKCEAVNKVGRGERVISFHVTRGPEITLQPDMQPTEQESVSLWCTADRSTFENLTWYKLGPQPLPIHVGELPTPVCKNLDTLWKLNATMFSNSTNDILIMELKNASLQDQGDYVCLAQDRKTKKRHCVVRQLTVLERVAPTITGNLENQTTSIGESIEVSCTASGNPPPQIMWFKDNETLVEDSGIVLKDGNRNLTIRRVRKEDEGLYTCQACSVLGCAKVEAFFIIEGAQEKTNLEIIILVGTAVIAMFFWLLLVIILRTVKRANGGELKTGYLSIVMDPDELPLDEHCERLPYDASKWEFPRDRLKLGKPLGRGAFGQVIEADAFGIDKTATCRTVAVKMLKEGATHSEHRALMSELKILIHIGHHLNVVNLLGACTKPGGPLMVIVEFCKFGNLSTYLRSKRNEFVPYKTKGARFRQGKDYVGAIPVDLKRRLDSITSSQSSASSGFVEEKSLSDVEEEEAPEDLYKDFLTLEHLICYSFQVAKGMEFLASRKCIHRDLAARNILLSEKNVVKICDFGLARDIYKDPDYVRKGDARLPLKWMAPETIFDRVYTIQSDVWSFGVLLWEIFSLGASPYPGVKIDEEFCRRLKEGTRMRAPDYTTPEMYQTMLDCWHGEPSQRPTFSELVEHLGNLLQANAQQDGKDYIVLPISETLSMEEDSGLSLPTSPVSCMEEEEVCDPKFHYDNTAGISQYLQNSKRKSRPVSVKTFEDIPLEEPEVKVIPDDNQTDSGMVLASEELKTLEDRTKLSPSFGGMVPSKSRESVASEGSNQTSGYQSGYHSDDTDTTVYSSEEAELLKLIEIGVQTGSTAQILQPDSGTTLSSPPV
Procedure, shortened: as §5

[5] = target: T4, VEGFR1 (Homo sapiens, UniProt P17948); assay: Kinase inhibitory activity, Mobility Shift Assay (VEGFR1); assay type: biochemical
T4 construct: purchased Invitrogen PR6731B
T4 sequence (P17948 27-1338): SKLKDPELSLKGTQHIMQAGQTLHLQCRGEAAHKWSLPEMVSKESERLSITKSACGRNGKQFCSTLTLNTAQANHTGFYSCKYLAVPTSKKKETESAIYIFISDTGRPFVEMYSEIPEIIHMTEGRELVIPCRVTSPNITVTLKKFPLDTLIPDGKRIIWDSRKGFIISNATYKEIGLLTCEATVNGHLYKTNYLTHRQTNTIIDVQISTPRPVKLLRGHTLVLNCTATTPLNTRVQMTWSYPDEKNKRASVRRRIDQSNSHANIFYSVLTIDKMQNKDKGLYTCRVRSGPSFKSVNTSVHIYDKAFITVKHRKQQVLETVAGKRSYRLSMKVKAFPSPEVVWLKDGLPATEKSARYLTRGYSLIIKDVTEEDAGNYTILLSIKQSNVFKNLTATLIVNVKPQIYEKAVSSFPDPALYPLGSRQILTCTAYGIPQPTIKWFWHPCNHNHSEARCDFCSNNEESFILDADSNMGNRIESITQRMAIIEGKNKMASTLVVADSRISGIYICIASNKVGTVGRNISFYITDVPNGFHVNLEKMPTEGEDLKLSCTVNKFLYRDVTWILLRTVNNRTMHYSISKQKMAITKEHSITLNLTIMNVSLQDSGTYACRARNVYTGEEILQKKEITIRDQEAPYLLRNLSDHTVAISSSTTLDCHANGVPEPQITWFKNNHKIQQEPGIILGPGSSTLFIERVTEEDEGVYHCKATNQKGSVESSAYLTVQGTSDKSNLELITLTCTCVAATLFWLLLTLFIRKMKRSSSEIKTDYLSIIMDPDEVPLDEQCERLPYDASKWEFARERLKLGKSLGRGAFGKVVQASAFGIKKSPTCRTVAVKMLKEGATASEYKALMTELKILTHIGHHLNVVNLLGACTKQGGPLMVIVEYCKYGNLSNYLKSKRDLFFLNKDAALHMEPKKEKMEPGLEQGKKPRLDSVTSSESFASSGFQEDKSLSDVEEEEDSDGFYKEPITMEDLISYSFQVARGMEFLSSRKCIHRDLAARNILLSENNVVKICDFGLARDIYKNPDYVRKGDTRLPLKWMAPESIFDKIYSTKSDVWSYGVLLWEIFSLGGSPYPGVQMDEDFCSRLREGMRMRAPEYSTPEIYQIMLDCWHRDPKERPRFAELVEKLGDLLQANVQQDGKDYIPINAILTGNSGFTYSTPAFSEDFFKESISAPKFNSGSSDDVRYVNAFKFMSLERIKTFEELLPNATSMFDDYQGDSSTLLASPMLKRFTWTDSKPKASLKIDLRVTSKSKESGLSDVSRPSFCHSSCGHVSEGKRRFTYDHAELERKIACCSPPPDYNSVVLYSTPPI
Method: as §1, §2, §3, §4

[6] = Thermodynamic solubility test; assay type: physicochemical; details: buffer solution, aqueous buffer, thermodynamic from solid; thermodynamic solubility, room temperature, 8 hours shaking; buffers pH 2.0, 6.5, 7.4 used, pH of the tabulated value not given
Procedure, shortened: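 Samples sonicated 10 min, shaken 8 h at room temperature, re-sonicated and centrifuged at 13000 rpm for 15 min. Supernatant recentrifuged and analysed by LC-MS, with concentrations quantified against a 3–5 point calibration curve.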

[7] = Ophthalmic formulations based on polyethylene glycol series vehicles: composition and state (Example 7); assay type: physicochemical; details: Table 15: 10 mg/mL; Polyethylene glycol 400 10, Hydroxypropyl-β-cyclodextrin 10, Gellan Gum Gelrite 0.3, Poloxamer 188 1, Tris solution and Citric acid
Procedure, shortened: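 Compound was dissolved, or nearly dissolved, in PEG 400 by sonication (heated to 50 °C if needed), then mixed into Tris-HCl buffer containing hydroxypropyl-β-cyclodextrin, poloxamer 188 and gellan gum or another viscosity modifier. Physical state was scored visually as solution, near-clear solution, suspension or gel.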

[8] = target: T5, VEGFR2 autophosphorylation (pVEGFR2) in HUVEC cells (Homo sapiens, UniProt P35968); assay: Inhibition of VEGF-induced VEGFR2 phosphorylation in HUVEC cells (ELISA); assay type: cell-based; details: 50 ng/mL human VEGF, compound 1 hour
T5 construct: endogenous in cells; host or cells: HUVEC
T5 sequence (P35968 20-1356): as the sequence (P35968 20-1356) above
From the text: Assay for Compound Inhibition of VEGFR2 Phosphorylation in HUVEC Cells
VEGF is a potent growth factor that promotes angiogenesis and vascular permeability. Vascular endothelial growth factor receptor 2 (VEGFR2) is the primary receptor for VEGF-induced endothelial cell signaling. Upon ligand binding, VEGFR2 undergoes autophosphorylation and is activated. The primary function from VEGFR2 signaling is to induce blood vessel formation during development and after tissue injury, and to bypass blocked vessels. Pathologically, VEGF and VEGFR2 are involved in tumor angiogenesis and vascular leakage. They are considered major players in many different cancers and ocular diseases accompanied by pathological neovascularization. This assay uses ELISA to measure the compound's ability to inhibit VEGF-induced VEGFR2 autophosphorylation (pVEGFR2) in HUVEC cells. Table 7. Reagents and Instruments
Before cell seeding, cells reached 60%-80% confluency in cell culture flasks. The cell suspension was diluted with pre-warmed complete medium to 4.5×10^6 cells/mL. 80 microliters of cell suspension was added to all wells of a 96-well cell plate (Corning-3599); incubated overnight at 37°C and 5% CO2. Compound powder was dissolved in DMSO to 10 mM and stored in a nitrogen cabinet. Compound dilution master plate: In a 96-well V-bottom plate (Axygen- WIPP02280), reference compound Ponatinib or test compound concentrations were added, starting from 5 mM (5 microliters of 10 mM compound solution plus 5 microliters DMSO) with 3-fold serial dilutions for a total of 8 concentration points. […] 20 microliters of diluted compound was transferred from the intermediate plate to the cell plate. The cell plate was then incubated at 37°C and 5% CO2 for 1 hour. […] It was gently shaken for 30 seconds, and the absorbance was measured within 30 minutes using a SpectraMax® 340 PC 384 Absorbance Microplate Reader, reading the optical density value at 450 nm. […]
All other values are expressed as a percentage of these controls (inhibition rate). […]

| pIC50 [1] | fraction unbound at 2 h, 2 µM [2] | pIC50 [3] | pIC50 [4] | pIC50 [5] | solubility at 8 h [6] [µg/mL] | State Description: pH [7] | State Description: state [7] | pIC50 [8] | Compound |
| --- | --- | --- | --- | --- | --- | --- | --- | --- | --- |
|  | 0.01 to 0.05 | 4.22 to 5.22 | ≥ 9.00 |  |  | ~5.5 | gel | ≥ 9.00 | CCN(CC)CCc1ccc(/C=C/c2n[nH]c3cc(Sc4ccccc4C(=O)NC4CC4)ccc23)nc1 [Compound I-77, N-cyclopropyl-2-({3-[(E)-2-{5-[2-(diethylamino)ethyl]pyridin-2-yl}ethenyl]-1H-indazol-6-yl}sulfanyl)benzamide] |
| ≥ 9.00 | > 0.05 | 4.22 to 5.22 | ≥ 9.00 | ≥ 9.00 | 14.2 (≈ 28.4 µM) |  |  |  | CNC(=O)c1ccccc1Sc1ccc2c(/C=C/c3ccc(OCC4CCN(C)C4)cn3)n[nH]c2c1 (stereo not drawn) [Compound I-1] |
| 8.00 to 9.00 | 0.01 to 0.05 | 4.22 to 5.22 | ≥ 9.00 | ≥ 9.00 |  |  |  |  | CNC(=O)c1ccccc1Sc1ccc2c(/C=C/c3ccc(OC[C@H]4CCN(C)C4)cn3)n[nH]c2c1 [Compound I-37] |
| 8.00 to 9.00 | > 0.05 | 4.22 to 5.22 | 8.00 to 9.00 | ≥ 9.00 | 294 (≈ 605 µM) |  |  |  | CNC(=O)c1ccccc1Sc1ccc2c(/C=C/c3ccc(OCC4CCNC4)cn3)n[nH]c2c1 (stereo not drawn) [Compound I-7] |
| 8.00 to 9.00 | 0.01 to 0.05 | 4.22 to 5.22 | ≥ 9.00 | ≥ 9.00 | 28.8 (≈ 57.6 µM) |  |  |  | CNC(=O)c1ccccc1Sc1ccc2c(/C=C/c3ccc(OCC4CCCN4C)cn3)n[nH]c2c1 (stereo not drawn) [Compound I-2, N-methyl-2-((3-((E)-2-(5-((1-methylpyrrolidin-2-yl)methoxy)pyridin-2-yl)ethenyl)-1H-indazol-6-yl)thio)benzamide] |
|  | > 0.05 | 4.22 to 5.22 | 8.00 to 9.00 |  | 546 (≈ 1080 µM) |  |  | ≥ 9.00 | CCNC(=O)c1cc(F)ccc1Sc1ccc2c(/C=C/c3ccc(CN(CC)CC)cn3)n[nH]c2c1 [Compound I-88] |

More lines, now with the values behind:

| Compound | pIC50 [1] | fraction unbound at 2 h, 2 µM [2] | pIC50 [3] | pIC50 [4] | pIC50 [5] | solubility at 8 h [6] [µg/mL] | State Description: pH [7] | State Description: state [7] | pIC50 [8] |
| --- | --- | --- | --- | --- | --- | --- | --- | --- | --- |
| CNC(=O)c1ccccc1Sc1ccn2c(/C=C/c3ccccn3)ncc2c1 [Compound I-27, N-methyl-2-({3-[(E)-2-(pyridin-2-yl)ethenyl]imidazo[1,5-a]pyridin-7-yl}thio)benzamide] | < 7.00 | 0.01 to 0.05 | 4.22 to 5.22 | < 7.00 | < 7.00 |  |  |  |  |
| CNC(=O)c1ccccc1Sc1ccc2c(/C=C/c3ccccn3)ncn2c1 [Compound I-26, N-methyl-2-({1-[(E)-2-(pyridin-2-yl)ethenyl]imidazo[1,5-a]pyridin-6-yl}thio)benzamide] | < 7.00 | 0.01 to 0.05 | < 4.22 | < 7.00 | < 7.00 | 142 (≈ 367 µM) |  |  |  |
| O=C(O)c1ccccc1Sc1ccn2c(/C=C/c3ccccn3)ncc2c1 [Compound I-28, 2-({3-[(E)-2-(pyridin-2-yl)ethenyl]imidazo[1,5-a]pyridin-7-yl}thio)benzoic acid] | < 7.00 | > 0.05 | ≥ 6.22 | < 7.00 | < 7.00 |  |  |  |  |
| CNC(=O)c1ccccc1Sc1ccc2c(NC(=O)NCCN3CCN(C)CC3)n[nH]c2c1 [Compound I-31] | < 7.00 | 0.01 to 0.05 | < 4.22 | < 7.00 | < 7.00 | 542 (≈ 1160 µM) |  |  |  |
| CNC(=O)c1ccccc1Sc1ccc2c(cnn2-c2ccc(OCCN3CCCC3)cn2)c1 [Compound I-29, N-methyl-2-[(1-{5-[2-(pyrrolidin-1-yl)ethoxy]pyridin-2-yl}-1H-indazol-5-yl)sulfanyl]benzamide] | < 7.00 |  | < 4.22 | < 7.00 | < 7.00 |  |  |  |  |
